# Laboratory results: ChEMBL document CHEMBL3580594, “Synthesis and biological evaluation of 4-substituted fluoronucleoside analogs for the treatment of hepatitis B virus infection” (J Med Chem, 2015)
# Tests used:
# Duck hepatitis B virus [1] = test: Antiviral activity against duck Hepatitis B virus infected in duck assessed as inhibition of viral DNA replication in liver at 0.04 mg/kg/day, po treatment initiated at day 10 after infection relative to control; format: functional; conditions: 240 h
# Duck hepatitis B virus [2] = test: Antiviral activity against duck Hepatitis B virus infected in duck assessed as inhibition of viral DNA replication in serum at 0.2 mg/kg/day, po treatment initiated at day 10 after infection relative to control; format: functional; conditions: 240 h
# Duck hepatitis B virus [3] = test: Antiviral activity against duck Hepatitis B virus infected in duck assessed as inhibition of viral DNA replication in serum at 0.04 mg/kg/day, po treatment initiated at day 5 after infection relative to control; format: functional; conditions: 120 h
# Hepatitis B virus [4] = test: Antiviral activity against Hepatitis B virus in HepG2.2.15 cells assessed as inhibition of intracellular viral DNA replication at 5 uM after 6 days by real-time FQ-PCR analysis; format: functional; conditions: HepG2 2.2.15, 144 h
# Mus musculus [5] = test: Toxicity in KM mouse assessed as peripheral WBC number in blood per liter at 20 mg/kg/day, po 5 doses (reference value: 7.47 +/- 33.77 /L x 10^-9 cells); format: organism-based; conditions: in vivo
# Hepatitis B virus [6] = test: Antiviral activity against Hepatitis B virus in HepG2.2.15 cells assessed as inhibition of extracellular viral DNA replication at 0.2 uM after 3 days by real-time FQ-PCR analysis; format: functional; conditions: HepG2 2.2.15, 72 h
# Duck hepatitis B virus [7] = test: Antiviral activity against duck Hepatitis B virus infected in duck assessed as inhibition of viral DNA replication in serum at 1 mg/kg/day, po treatment initiated at day 10 after infection relative to control; format: functional; conditions: 240 h
# Mus musculus [8] = test: Acute toxicity in KM mouse assessed as adverse effect at 200 mg/kg, iv suspended in normal saline; format: organism-based; conditions: in vivo
# Mus musculus [9] = test: Toxicity in KM mouse assessed as peripheral WBC number in blood per liter at 5 mg/kg/day, po 5 doses (reference value: 7.47 +/- 33.77 /L x 10^-9 cells); format: organism-based; conditions: in vivo
# Mus musculus [10] = test: Acute toxicity in KM mouse assessed as weight loss at 3 g/kg, iv suspended in 0.5% CMC/Na solution after 14 days; format: organism-based; conditions: in vivo, 3000 mg/kg, 336 h
# Mus musculus [11] = test: Acute toxicity in KM mouse assessed as morbidity at 3 g/kg, iv suspended in 0.5% CMC/Na solution after 14 days; format: organism-based; conditions: in vivo, 3000 mg/kg, 336 h
# Rattus norvegicus [12] = test: In vivo drug metabolism in rat plasma sample assessed as 1-((2R,3S,4R,5R)-5-azido-3-fluoro-4-hydroxy-5-(hydroxymethyl)tetrahydrofuran-2-yl)-4-(2-hydroxycyclopropylamino)pyrimidin-2(1H)-one formation by LC-MS/MS analysis; format: ADME, organism-based
# Duck hepatitis B virus [13] = test: Antiviral activity against duck Hepatitis B virus infected in duck assessed as inhibition of viral DNA replication in serum at 0.04 to 20 mg/kg, po; format: functional, organism-based; conditions: TDE = time-dependent effect
# Hepatitis B virus [14] = test: Antiviral activity against Hepatitis B virus in HepG2.2.15 cells assessed as inhibition of extracellular viral DNA replication at 1 uM after 6 days by real-time FQ-PCR analysis; format: functional; conditions: HepG2 2.2.15, 144 h
# Duck hepatitis B virus [15] = test: Antiviral activity against duck Hepatitis B virus infected in po dosed duck assessed as inhibition of viral DNA replication in serum; format: functional, organism-based
# Mus musculus [16] = test: Toxicity in KM mouse assessed as micronucleus frequency in bone marrow polychromatic erythrocyte at 40 mg/kg, po single dose after 48 hrs (reference value: 2.20 +/- 0.84 %); format: organism-based; conditions: in vivo
# Rattus norvegicus [17] = species: Rattus norvegicus; test: Drug metabolism in rat urine sample assessed as 1-((2R,3S,4R,5R)-5-azido-3-fluoro-4-hydroxy-5-(hydroxymethyl)tetrahydrofuran-2-yl)-4-(2,3-dihydroxycyclopropylamino)pyrimidin-2(1H)-one formation by LC-MS/MS analysis; format: ADME, organism-based; conditions: in vivo
# Mus musculus [18] = test: Acute toxicity in KM mouse assessed as death at 400 mg/kg, iv suspended in normal saline; format: organism-based; conditions: in vivo
# Rattus norvegicus [19] = species: Rattus norvegicus; test: Drug metabolism in rat urine sample assessed as 4-amino-1-((2R,3S,4R,5R)-5-azido-3-fluoro-4-hydroxy-5-(hydroxymethyl)tetrahydrofuran-2-yl)pyrimidin-2(1H)-one formation by NMR spectrum; format: ADME, organism-based; conditions: in vivo
# Rattus norvegicus [20] = test: In vivo drug metabolism in rat bile sample assessed as 1-((2R,3S,4R,5R)-5-azido-3-fluoro-4-hydroxy-5-(hydroxymethyl)tetrahydrofuran-2-yl)-4-(2-hydroxycyclopropylamino)pyrimidin-2(1H)-one formation by LC-MS/MS analysis; format: ADME, organism-based
# Hepatitis B virus [21] = test: Antiviral activity against Hepatitis B virus in HepG2.2.15 cells assessed as inhibition of extracellular viral DNA replication at 1 uM after 3 days by real-time FQ-PCR analysis; format: functional; conditions: HepG2 2.2.15, 72 h
# Duck hepatitis B virus [22] = test: Antiviral activity against duck Hepatitis B virus infected in duck assessed as inhibition of viral DNA replication in liver at 1 mg/kg/day, po treatment initiated at day 5 after infection relative to control; format: functional; conditions: 120 h
# Duck hepatitis B virus [23] = test: Antiviral activity against duck Hepatitis B virus infected in duck assessed as inhibition of viral DNA replication in liver at 0.04 mg/kg/day, po treatment initiated at day 5 after infection relative to control; format: functional; conditions: 120 h
# Hepatitis B virus [24] = test: Antiviral activity against Hepatitis B virus in HepG2.2.15 cells assessed as inhibition of extracellular viral DNA replication at 5 uM after 3 days by real-time FQ-PCR analysis; format: functional; conditions: HepG2 2.2.15, 72 h
# Hepatitis B virus [25] = test: Antiviral activity against Hepatitis B virus in HepG2.2.15 cells assessed as inhibition of extracellular viral DNA replication at 0.2 uM after 6 days by real-time FQ-PCR analysis; format: functional; conditions: HepG2 2.2.15, 144 h
# Hepatitis B virus [26] = test: Antiviral activity against Hepatitis B virus in HepG2.2.15 cells assessed as inhibition of intracellular/extracellular viral DNA replication at 0.2 to 5 uM by real-time FQ-PCR analysis; format: functional, organism-based; conditions: HepG2 2.2.15, TDE = time-dependent effect
# Hepatitis B virus [27] = test: Antiviral activity against Hepatitis B virus in HepG2.2.15 cells assessed as inhibition of intracellular viral DNA replication at 0.2 uM after 3 days by real-time FQ-PCR analysis; format: functional; conditions: HepG2 2.2.15, 72 h
# Hepatitis B virus [28] = test: Antiviral activity against Hepatitis B virus in HepG2.2.15 cells assessed as inhibition of extracellular viral DNA replication at 1 uM after 9 days by real-time FQ-PCR analysis; format: functional; conditions: HepG2 2.2.15, 216 h
# Duck hepatitis B virus [29] = test: Antiviral activity against duck Hepatitis B virus infected in duck assessed as inhibition of viral DNA replication in liver at 1 mg/kg/day, po treatment initiated at day 10 after infection relative to control; format: functional; conditions: 240 h
# [30] = Cytotoxicity against human HepG2.2.15 cells by MTT assay; format: cell-based, HepG2 2.2.15
# Duck hepatitis B virus [31] = test: Antiviral activity against duck Hepatitis B virus infected in duck assessed as inhibition of viral DNA replication in serum at 1 mg/kg/day, po measured after 3 days of treatment withdrawal; format: functional; conditions: 72 h
# Liver microsome = test: Drug metabolism in rat liver microsomes assessed as 1-((2R,3S,4R,5R)-5-azido-3-fluoro-4-hydroxy-5-(hydroxymethyl)tetrahydrofuran-2-yl)-4-(2-hydroxycyclopropylamino)pyrimidin-2(1H)-one formation after 2 hrs by LC-MS/MS analysis; format: ADME
# Mus musculus [32] = test: Toxicity in KM mouse assessed as micronucleus frequency in bone marrow polychromatic erythrocyte at 20 mg/kg, po single dose after 48 hrs (reference value: 1.20 +/- 0.45 %); format: organism-based; conditions: in vivo
smiles,measurement,setting,value
[N-]=[N+]=N[C@]1(CO)O[C@@H](n2ccc(NC3CC3)nc2=O)[C@@H](F)[C@@H]1O,inhibition in vivo at 0.04 mg/kg/day,Duck hepatitis B virus [1],62.8%
same,inhibition in vivo at 0.2 mg/kg/day,Duck hepatitis B virus [2],69.5%
same,inhibition in vivo at 0.04 mg/kg/day,Duck hepatitis B virus [3],48.1%
same,inhibition at 5 µM,Hepatitis B virus [4],53%
same,Activity,Mus musculus [5],6.53 ×10⁹ /L
same,inhibition at 0.2 µM,Hepatitis B virus [6],33.8%
same,inhibition in vivo at 1 mg/kg/day,Duck hepatitis B virus [7],74.2%
same,Activity,Mus musculus [8],Non-toxic
same,Activity,Mus musculus [9],6.05 ×10⁹ /L
same,Activity,Mus musculus [10],Non-toxic
same,Activity,Mus musculus [11],Non-toxic
same,Drug metabolism,Rattus norvegicus [12],metabolite_detected
same,inhibition,Duck hepatitis B virus [13],tde
same,inhibition at 1 µM,Hepatitis B virus [14],76.7%
same,inhibition,Duck hepatitis B virus [15],Dose-dependent effect
same,Activity,Mus musculus [16],1.4%
same,Drug metabolism,Rattus norvegicus [17],metabolite_detected
same,Activity,Mus musculus [18],Toxic
same,Drug metabolism,Rattus norvegicus [19],metabolite_detected
same,Drug metabolism,Rattus norvegicus [20],metabolite_detected
same,inhibition at 1 µM,Hepatitis B virus [21],54%
same,inhibition in vivo at 1 mg/kg/day,Duck hepatitis B virus [22],64.1%
same,inhibition in vivo at 0.04 mg/kg/day,Duck hepatitis B virus [23],34.8%
same,inhibition at 5 µM,Hepatitis B virus [24],53%
same,inhibition at 0.2 µM,Hepatitis B virus [25],52%
same,inhibition,Hepatitis B virus [26],tde
same,inhibition at 0.2 µM,Hepatitis B virus [27],20.6%
same,inhibition at 1 µM,Hepatitis B virus [28],76.2%
same,inhibition in vivo at 1 mg/kg/day,Duck hepatitis B virus [29],82.1%
same,CC50,[30],391 µM
same,inhibition in vivo at 1 mg/kg/day,Duck hepatitis B virus [31],69.9%
same,Drug metabolism,Liver microsome,metabolite_detected
same,Activity,Mus musculus [32],2.8%
